ChEMBL document CHEMBL1909046, “DrugMatrix in vitro pharmacology data”

What was measured:
[1] = biological target: Aldo-keto reductase family 1 member B1 (Rattus norvegicus, UniProt P07943); test: biochemical; type: tissue-based, Lens of camera-type eye;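 also: inhibition of aldose reductase enzyme activity, measured with DL-glyceraldehyde as the substrate; in other assays of this panel Not Active means under 50% inhibition at 10 µM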
Estrogen receptor beta = Estrogen receptor beta (Homo sapiens, UniProt Q92731); settings: sf9; also: in other assays of this panel Not Active means under 50% inhibition at 10 µM
Chain of Estrogen receptor beta (Q92731 whole entry): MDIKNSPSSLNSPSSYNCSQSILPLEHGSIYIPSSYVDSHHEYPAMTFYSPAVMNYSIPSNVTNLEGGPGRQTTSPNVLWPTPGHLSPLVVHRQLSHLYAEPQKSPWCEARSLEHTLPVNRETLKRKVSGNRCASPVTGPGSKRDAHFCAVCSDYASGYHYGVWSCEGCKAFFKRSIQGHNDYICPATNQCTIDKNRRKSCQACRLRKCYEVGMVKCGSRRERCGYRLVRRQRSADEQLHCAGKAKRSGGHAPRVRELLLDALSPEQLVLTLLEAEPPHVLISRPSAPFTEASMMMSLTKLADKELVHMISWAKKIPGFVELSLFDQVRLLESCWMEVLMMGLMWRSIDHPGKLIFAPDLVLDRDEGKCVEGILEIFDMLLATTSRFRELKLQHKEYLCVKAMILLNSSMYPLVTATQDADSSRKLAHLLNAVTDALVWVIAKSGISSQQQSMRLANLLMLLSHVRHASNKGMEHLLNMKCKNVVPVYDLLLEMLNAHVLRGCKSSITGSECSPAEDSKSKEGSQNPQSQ

Mu-type opioid receptor = Mu-type opioid receptor (Homo sapiens, UniProt P35372); test: DRUGMATRIX: Opiate mu (OP3, MOP) radioligand binding (ligand: [3H] Diprenorphine); type: cell membranes, CHO-K1, Membrane; settings: cho-k1; Not Active = under 50% inhibition at 10 µM
Chain of Mu-type opioid receptor (P35372 whole entry): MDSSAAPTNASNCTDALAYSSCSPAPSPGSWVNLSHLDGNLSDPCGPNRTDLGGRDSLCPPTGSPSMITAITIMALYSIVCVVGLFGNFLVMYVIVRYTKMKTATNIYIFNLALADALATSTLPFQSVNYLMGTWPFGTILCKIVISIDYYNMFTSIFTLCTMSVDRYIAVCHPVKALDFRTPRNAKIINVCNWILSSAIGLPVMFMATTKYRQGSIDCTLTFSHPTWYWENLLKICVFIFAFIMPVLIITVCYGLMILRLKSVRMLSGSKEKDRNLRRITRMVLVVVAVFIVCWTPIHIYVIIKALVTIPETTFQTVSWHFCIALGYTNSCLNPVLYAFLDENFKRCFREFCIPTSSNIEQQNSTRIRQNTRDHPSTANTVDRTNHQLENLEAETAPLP

[2] = biological target: T1, Muscarinic acetylcholine receptor M2 (Homo sapiens, UniProt P08172); type: cell membranes, CHO-K1, Membrane; settings: cho-k1; also: in other assays of this panel Not Active means under 50% inhibition at 10 µM
T1 sequence (P08172 whole entry): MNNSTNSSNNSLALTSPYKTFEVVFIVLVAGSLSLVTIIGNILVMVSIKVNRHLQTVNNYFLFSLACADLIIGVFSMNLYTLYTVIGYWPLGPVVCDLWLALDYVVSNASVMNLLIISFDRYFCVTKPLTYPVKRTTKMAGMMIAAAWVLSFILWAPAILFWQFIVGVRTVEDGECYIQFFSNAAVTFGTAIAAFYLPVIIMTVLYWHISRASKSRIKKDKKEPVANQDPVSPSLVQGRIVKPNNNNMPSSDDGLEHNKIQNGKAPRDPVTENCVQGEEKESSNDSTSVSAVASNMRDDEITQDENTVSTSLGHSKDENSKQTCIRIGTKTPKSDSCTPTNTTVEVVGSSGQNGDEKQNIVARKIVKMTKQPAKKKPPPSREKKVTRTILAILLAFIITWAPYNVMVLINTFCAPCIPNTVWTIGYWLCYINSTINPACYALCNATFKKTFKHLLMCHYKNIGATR

[3] = biological target: Tyrosine-protein kinase Lck (Homo sapiens, UniProt P06239); test: DRUGMATRIX: Protein Tyrosine Kinase, LCK enzyme inhibition (substrate: Poly(Glu:Tyr)); type: cell-based, Insect cells; settings: insect cells; Not Active = under 50% inhibition at 10 µM
Chain of Tyrosine-protein kinase Lck (P06239 whole entry): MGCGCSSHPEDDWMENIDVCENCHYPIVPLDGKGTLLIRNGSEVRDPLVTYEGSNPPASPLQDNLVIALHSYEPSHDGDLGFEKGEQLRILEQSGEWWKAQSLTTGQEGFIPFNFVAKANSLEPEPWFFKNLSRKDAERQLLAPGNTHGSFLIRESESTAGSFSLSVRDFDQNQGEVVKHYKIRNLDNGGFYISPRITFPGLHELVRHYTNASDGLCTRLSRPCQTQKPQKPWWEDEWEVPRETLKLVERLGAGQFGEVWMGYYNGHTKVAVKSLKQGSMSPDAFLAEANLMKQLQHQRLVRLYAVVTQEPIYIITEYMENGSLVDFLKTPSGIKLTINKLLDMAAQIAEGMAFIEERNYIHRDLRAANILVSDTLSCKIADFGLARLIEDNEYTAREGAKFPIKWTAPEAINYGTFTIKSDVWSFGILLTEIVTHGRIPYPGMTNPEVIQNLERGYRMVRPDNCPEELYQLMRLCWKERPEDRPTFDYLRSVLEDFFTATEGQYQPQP

[4] = biological target: Sodium-dependent noradrenaline transporter (Homo sapiens, UniProt P23975); test: DRUGMATRIX: Norepinephrine Transporter radioligand binding (ligand: [125I] RTI-55); type: cell membranes, MDCK, Membrane; settings: mdck; Not Active = under 50% inhibition at 10 µM
Chain of Sodium-dependent noradrenaline transporter (P23975 whole entry): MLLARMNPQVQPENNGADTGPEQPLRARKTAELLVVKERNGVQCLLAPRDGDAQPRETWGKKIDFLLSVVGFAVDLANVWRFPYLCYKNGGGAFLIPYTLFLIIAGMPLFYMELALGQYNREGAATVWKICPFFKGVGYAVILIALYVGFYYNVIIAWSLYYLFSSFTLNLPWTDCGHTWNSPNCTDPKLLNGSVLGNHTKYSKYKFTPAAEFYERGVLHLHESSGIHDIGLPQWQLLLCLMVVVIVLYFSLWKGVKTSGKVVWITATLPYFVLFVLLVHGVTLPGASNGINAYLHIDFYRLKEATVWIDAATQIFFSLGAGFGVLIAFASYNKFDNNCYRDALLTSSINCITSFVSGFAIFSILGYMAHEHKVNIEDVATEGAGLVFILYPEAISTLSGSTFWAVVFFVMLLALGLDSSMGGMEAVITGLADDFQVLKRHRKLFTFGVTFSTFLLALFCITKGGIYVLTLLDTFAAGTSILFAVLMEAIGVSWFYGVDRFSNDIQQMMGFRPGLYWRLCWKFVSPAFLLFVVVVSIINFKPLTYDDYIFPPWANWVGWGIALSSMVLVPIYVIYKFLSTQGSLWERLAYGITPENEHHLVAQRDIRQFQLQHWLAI

Measured: IC50

CCCOc1ccccc1-c1nc2nn[nH]c2c(=O)[nH]1 [ZAPRINAST]
Not Active: [1] | Estrogen receptor beta | Mu-type opioid receptor | [2] | [3] | [4]
